Results as given in patent US20230181463A1, “OLEOGEL AND OLEOPASTE COMPOSITIONS AND USES THEREOF” (Massachusetts Institute of Technology, priority 2020, published 2023).

Key:
[1] = Stability of drugs in oleogels; assay type: physicochemical; settings: oleogel, 40° C., mean±S.D., n=5
Description: Finally, the stability of drugs in oleogels was tested (Table 3.3). Oleogels loaded with drugs (Azithromycin, Lumefantrine, or Ivermectin) were placed at different temperatures. At various times, drug was extracted from the oleogel and the concentration was measured using HPLC-UV or LC-MS/MS. Drug stability (last column) is represented as mean±S.D., n=5.

[2] = Stability of ivermectin during heating; assay type: physicochemical; settings: peceol, ricebran wax, cottonseed oil
Description: As manufacturing of the formulation involves heating, the stability of ivermectin during heating was assessed (see FIG. 24).

[3] = cited from earlier work
[4] = Release of ABZ from non-oil-based formulations in SIF; assay type: in vitro ADME
Description: To test the effect of nanosizing, the rate of release of ABZ in SIF when ABZ was used unformulated and when formulated in nanoparticles was compared. Additionally, a physical mixture of ABZ, PVA and Tween 20 was prepared to delineate the effects that the excipients had on drug release and the effect of nanosizing.
For the release study, 17.5 mg of the nanoparticle formulation, or physical mixture were placed in a 50-ml falcon tube. ABZ powder equivalent to the amount present in the physical mixture and nanoparticle formulation was used for the drug release. SIF was added to each formulation and drug release studies were conducted as described for AZT. Concentration of ABZ in release media was measured using HPLC.
ABZ samples after being prepared with methanol were analysed by Agilent 1260 Infinity I Quaternary LC equipped with a diode array detector (DAD). Isocratic elution of 0.1% formic acid in distilled water and acetonitrile was 55:45 with flow rate of 1 ml/min. Injection volume was 5 μl, and Zobrax Eclipse XDB C18 column (4.6×150 mm) was used at 40° C. The running time was 6 minutes and the retention time of ABZ is 3.4 mins. DAD was employed, and readout was detected at the wavelength of 254 nm, bandwidth of 4.0 nm and 10 Hz data acquisition rate. The method gained good peak shape and symmetry.

[5] = Solubility of albendazole in oil and oil-solubilizer formulations; settings: 28 formulations
[6] = Lindenberg et al., 2004; cited from earlier work
[7] = Stability of AZT during synthesis of oleogel (heating in cottonseed oil at 90° C.); assay type: physicochemical; settings: AZT 1 mg/g in cottonseed oil; 0, 5 and 10 mins; one-way ANOVA, α=0.05
Description: Twenty-five milligrams of AZT were added to cottonseed oil in a glass vial at concentration of 1 mg/g. After 60 minutes of sonication, all drug powder was dissolved. The AZT solution was divided into three parts (8 ml each). One part was maintained at room temperature, while the other two were placed on a hot plate at 90° C. for 5 minutes and 10 minutes. Forty microliters from each vial were pipetted into 1.5-ml microcentrifuge tube containing 1 ml of methanol. AZT was extracted from the oil phase into the methanol phase by shaking on a horizontal shaker overnight. Following overnight extraction, the oil phase was separated from the methanol phase by centrifugation at 14000 RPM for 10 minutes. The methanol phase was diluted before analysis using liquid chromatography-mass spectrometry (LC-MS).
AZT concentration in methanol extract was analysed by LC-MS on Agilent 1260 Infinity I Quaternary LC equipped with a diode array detector (DAD) and Agilent 6120B Single Quadrupole mass spectrometer hardware and software. Roxithromycin (RXT) was used as an internal standard of AZT analysis. The linear range of AZT detection was 10-5000 ng/ml. […] The flow rate was 0.75 ml/min while chromatograms were recorded at wavelength of 210 nm, bandwidth of 4.0 nm and 5 Hz data acquisition rate. […]

[8] = cited from earlier work; remark: listed apart in the source
[9] = model input, Beringer et al., 2005; cited from earlier work
[10] = Description: Solubility of three anti-infectives, azithromycin, praziquantel and lumefantrine, were measured in 108 formulations prepared by mixing various oils and solubilizers (9 oils×11 solubilizers, and 9 oils without solubilizer). Given the focus in rapid clinical translation, the weight fraction of the solubilizer was limited to the maximum level they were used in FDA-approved products.
Approximately two grams of oil-solubilizer mixtures in a 20 mL glass vial. Drug was added in excess to each formulation and the mixture was stirred overnight at room temperature. One milliliter of the mixture was removed, placed in a microcentrifuge tube, and centrifuged at 6000 rpm for 15 min to remove insoluble drug particles. A fraction of the supernant was removed and drug was extracted using methanol or acetonitrile. Drug concentrations in the extracts were measured using HPLC.
An Agilent 1260 Infinity II HPLC system equipped with a quaternary pump, autosampler, thermostat, control module, and diode array detector. Data processing and analysis was performed using OpenLab CDS ChemStation®. Praziquantel chromatographic separations were carried out on an Agilent ZORBAX Eclipse Plus C-18 analytical column (4.6>150 mm) with 5 μm particles, maintained at 40° C. Gradient separation at a flow rate of 1 mL/min was achieved using water and acetonitrile, which corresponds to A and B, respectively. The run time was 5 minutes with a 3-minute post-run and a gradient profile of: 0 min A: 70% and B: 30%, 2.5 min A: 30% and B: 70%. The injection volume was 5 μL. The diode array detector was set using an ultraviolet (UV) detection wavelength of 217 nm with no reference at an acquisition rate of 40 hertz.
Azithromycin chromatographic separations were carried out on an Agilent 4.6×150 mm ZORBAX Eclipse Plus C-18 analytical column with 5 μm particles, maintained at 40° C. Isocratic separation at a flow rate of 1 mL/min was achieved using 10% 10 mM ammonium phosphate dibasic in water and 90% methanol. The run time was 6 minutes. The injection volume was 10 μL. The diode array detector was set using an ultraviolet (UV) detection wavelength of 210 nm with no reference at an acquisition rate of 5 hertz.
Lumefantrine chromatographic separations were carried out on an Agilent Poroshell 120 PFP column (4.6×100 mm) with 2.7 μm particles, maintained at 40° C. Gradient separation at a flow rate of 1 mL/min was achieved using 0.1% formic acid in water and methanol, which corresponds to A and B, respectively. The run time was 7 minutes with a 3-minute post-run and a gradient profile of: 0 min A: 30% and B: 70%, 3 min A: 5% and B: 95%. The injection volume was 10 μL. The diode array detector was set using an ultraviolet detection wavelength of 303 nm with no reference wavelength at an acquisition rate of 40 hertz.

[11] = In vitro digestion and drug bioaccessibility of praziquantel-loaded gel; assay type: in vitro ADME; settings: from oleogel
Description: The digestion of gels were characterized in three simulated conditions—oral, gastric and intestinal phases (fasted state).
Simulated salivary fluid (SSF) pH 7.0 was prepared in the presence of a-amylase based on a previously described method^24,43 with slight modifications. Briefly, SSF stock solution (1.25x concentrated, 3.5 mL) was placed in a glass vial. The 1.25× SSF stock solution contained the following ingredients: 15.1 mmol/L potassium chloride, 3.7 mmol/L potassium dihydrogen phosphate, 13.6 mmol/L sodium bicarbonate, 0.15 mmol/L magnesium chloride and 0.06 mmol/L ammonium carbonate. To this 0.5 mL of a-amylase solution (0.3 mg/mL in SSF stock solution), 0.025 mL of 0.3M calcium chloride and 0.975 mL of water were added and thoroughly mixed.
The SSF was added to 0.5 g praziquantel-loaded gel placed in a pre-heated glass vial at 37° C. containing 5 glass beads to aid in mixing. The vials were placed in an incubator shaker and shaken at 160 rpm and 37° C. One hundred microliters of the sample were withdrawn periodically, centrifuged at 14,000 rpm for 15 min. The supernant was collected and syringe filtered through a 0.22 μm nylon syringe filter (Nalgene Syringe Filters, Thermo Scientific™). Drug concentration in the filtrate was analyzed using HPLC.
In vitro digestion in gastric phase was performed in 7.5 mL simulated gastric fluid (SGF) pH 2 (2 g/L sodium chloride, 2.917 g/L concentrated hydrochloric acid) in the presence of pepsin (3.4 g/L). […] Samples (0.2 mL) were withdrawn periodically, centrifuged at 14,000 rpm for 15 min and syringe filtered through 0.22 μm nylon syringe filters (Nalgene Syringe Filters, Thermo Scientific™) prior to drug quantification with HPLC.
The fasting state simulated intestinal fluid version 2 (FaSSIF-V2) medium pH 6.5 was prepared based on a previously described method^44 in the presence of pancreatin (8×USP specification). […] Samples were then centrifuged for 15 min at 14,000 rpm at room temperature and drug concentration in the supernatant was measured using HPLC.

ivermectin
% drug stable ([1]; 28 days, Butylated hydroxyanisole): 98 ± 11%
drug recovered after heating [2]: 100%

CCCSc1ccc2nc(NC(=O)OC)[nH]c2c1 [ABZ, albendazole]
reported water solubility of albendazole [3]: 41 µg/g
ABZ released and solubilized, plateau concentration ([4]; 90-minute release, not formulated in oil): 0.05 µg/mL
drug release (in words) ([4]; not formulated in oils, FIGS. 36A-36C): no drug release measured
solubility in oil and oil-solubilizer formulations higher than reported water solubility [5]: ~10 fold
absorption extent [6]: < 5%

CC[C@H]1OC(=O)[C@H](C)[C@@H](O[C@H]2C[C@@](C)(OC)[C@@H](O)[C@H](C)O2)[C@H](C)[C@@H](O[C@@H]2O[C@H](C)C[C@H](N(C)C)[C@H]2O)[C@](C)(O)C[C@@H](C)CN(C)[C@H](C)[C@@H](O)[C@]1(C)O [AZT, azithromycin]
AZT concentrations after heating at 90° C. [7]: no statistical effect of temperature on AZT concentrations
solubility of azithromycin in water ([8]; reference 39): ~0.2 mg/g
% drug stable ([1]; 44 days, Propyl gallate): 99 ± 5%
ka (absorption rate constant) [9]: 0.452 h⁻¹
solubility of azithromycin in the oils [10]: 6 to 10 mg/g
water solubility lower than certain tested formulations [10]: ~100 fold

CCCCN(CCCC)CC(O)c1cc(Cl)cc2c1-c1ccc(Cl)cc1/C2=C/c1ccc(Cl)cc1 (stereo not drawn) [lumefantrine]
reported water solubility of lumefantrine ([8]; reference 40): < 2 µg/g
average solubility in other Labrafac lipophile formulations lower than with flaxseed oil [10]: ~1.6 fold
average solubility of lumefantrine [10]: 16.6 ± 3.8 mg/g
solubility in tested formulations higher than reported water solubility [10]: ~10000 fold
solubility of lumefantrine [10]: 26.6 ± 1.8 mg/g
solubility of lumefantrine in the oils [10]: > 10 mg/g

O=C(C1CCCCC1)N1CC(=O)N2CCc3ccccc3C2C1 (stereo not drawn) [praziquantel]
solubilized fraction of praziquantel in the aqueous intestinal phase ([11]; FaSSIF-V2 with pancreatin, t=15 min): 51%
praziquantel in the aqueous phase, maximum of total drug content ([11]; simulated gastric digestion (SGF pH 2), within 30 min, plateau to 2 h): 10%
praziquantel detected in the SSF, of total drug content ([11]; simulated salivary fluid): ≤ 1%
solubility in sunflower oil higher than in the rest of the oils [10]: ~2 fold
solubility of praziquantel in most oils [10]: 5 to 7 mg/g
